compound: COc1cc2nc(N3CCCN(C)CC3)nc(NC3CCN(Cc4ccccc4)CC3)c2cc1OC + CC(=O)Nc1cccc(-n2c(=O)n(C3CC3)c(=O)c3c(Nc4ccc(I)cc4F)n(C)c(=O)c(C)c32)c1 [Trametinib] (partner 0.02 µM); test: relative viability (nuclei count vs DMSO), 5 days (fraction); higher = more cells survive; settings: first compound 0.2 µM
Method in brief: (§1)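 Cells from lung cancer lines were seeded into 1536-well plates and, one day later, dosed by pin tool. Treatments were either a single drug or a fixed dose of an anchor drug with five library-drug doses (not always all listed) in √10 steps. After 5 days, nuclei were stained in a one-step fixation (final 0.05% Triton X-100, 1% formaldehyde, 1 ug/ml Hoechst) and counted on 4× images, and relative viability is the treated-to-vehicle nuclei ratio, as the median of duplicate plates.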

How did the relative viability turn out when HCC-78 was run?
The relative viability was 0.734.

With NCI-H322M as the cell line, how does the relative viability read?
The relative viability was 0.503.

For LCLC-97TM1, which relative viability is on record?
Its relative viability is 0.181.

With NCI-H2009 as the cell line, how does the relative viability read?
Its relative viability is 0.277.

A-427 was tested. Which relative viability did it give?
Its relative viability is 0.756.

NCI-H441 was tested. Which relative viability did it give?
Its relative viability is 0.366.

Which relative viability does the source give for NCI-H661 here?
Its relative viability is 0.612.

With NCI-H1734 as the cell line, how does the relative viability read?
Its relative viability is 0.657.

For NCI-H460, which relative viability is on record?
Its relative viability is 0.13.

How did the relative viability turn out when NCI-H2347 was run?
Its relative viability is 0.275.

SK-LU-1 was tested. Which relative viability did it give?
The relative viability was 0.554.

Which relative viability does the source give for 201T here?
The relative viability was 0.701.

NCI-H1915 was tested. Which relative viability did it give?
The relative viability was 0.309.

Which relative viability does the source give for HCC-827 here?
The relative viability was 0.533.

LXF-289 was tested. Which relative viability did it give?
Its relative viability is 0.651.

With NCI-H23 as the cell line, how does the relative viability read?
The relative viability was 0.358.

NCI-H647 was tested. Which relative viability did it give?
The relative viability was 0.514.

For NCI-H1651, which relative viability is on record?
Its relative viability is 0.828.

Which relative viability does the source give for EPLC-272H here?
Its relative viability is 0.292.

For NCI-H1792, which relative viability is on record?
The relative viability was 0.435.

For NCI-H1355, which relative viability is on record?
The relative viability was 0.419.

NCI-H3122 was tested. Which relative viability did it give?
The relative viability was 0.239.

With NCI-H1437 as the cell line, how does the relative viability read?
The relative viability was 0.492.

How did the relative viability turn out when NCI-H1755 was run?
Its relative viability is 0.797.

NCI-H2023 was tested. Which relative viability did it give?
Its relative viability is 0.598.

HCC-15 was tested. Which relative viability did it give?
The relative viability was 0.44.

With PC-14 as the cell line, how does the relative viability read?
Its relative viability is 0.707.

EKVX was tested. Which relative viability did it give?
Its relative viability is 0.316.

With LC-2-ad as the cell line, how does the relative viability read?
Its relative viability is 0.934.

How did the relative viability turn out when NCI-H1975 was run?
Its relative viability is 0.369.

Which relative viability does the source give for RERF-LC-KJ here?
The relative viability was 0.829.

How did the relative viability turn out when NCI-H650 was run?
Its relative viability is 1.01.

Which relative viability does the source give for PC-3 [JPC-3] here?
Its relative viability is 0.641.

same assay, conditions: first compound 0.6325 µM

HCC-78 was tested. Which relative viability did it give?
The relative viability was 0.695.

For NCI-H322M, which relative viability is on record?
Its relative viability is 0.495.

How did the relative viability turn out when LCLC-97TM1 was run?
The relative viability was 0.166.

For NCI-H2009, which relative viability is on record?
Its relative viability is 0.305.

A-427 was tested. Which relative viability did it give?
Its relative viability is 0.677.

How did the relative viability turn out when NCI-H441 was run?
The relative viability was 0.532.

For NCI-H661, which relative viability is on record?
Its relative viability is 0.563.

NCI-H1734 was tested. Which relative viability did it give?
Its relative viability is 0.697.

With NCI-H460 as the cell line, how does the relative viability read?
The relative viability was 0.16.

Which relative viability does the source give for NCI-H2347 here?
Its relative viability is 0.299.

How did the relative viability turn out when SK-LU-1 was run?
The relative viability was 0.541.

For 201T, which relative viability is on record?
The relative viability was 0.702.

NCI-H1915 was tested. Which relative viability did it give?
The relative viability was 0.295.

Which relative viability does the source give for HCC-827 here?
Its relative viability is 0.558.

How did the relative viability turn out when LXF-289 was run?
Its relative viability is 0.701.

How did the relative viability turn out when NCI-H23 was run?
Its relative viability is 0.362.

For NCI-H647, which relative viability is on record?
Its relative viability is 0.495.

With NCI-H1651 as the cell line, how does the relative viability read?
Its relative viability is 0.815.

With EPLC-272H as the cell line, how does the relative viability read?
The relative viability was 0.333.

For NCI-H1792, which relative viability is on record?
The relative viability was 0.47.

For NCI-H1355, which relative viability is on record?
The relative viability was 0.458.

NCI-H3122 was tested. Which relative viability did it give?
Its relative viability is 0.199.

NCI-H1437 was tested. Which relative viability did it give?
The relative viability was 0.515.

How did the relative viability turn out when NCI-H1755 was run?
The relative viability was 0.75.

How did the relative viability turn out when NCI-H2023 was run?
Its relative viability is 0.577.

With HCC-15 as the cell line, how does the relative viability read?
The relative viability was 0.386.

Which relative viability does the source give for PC-14 here?
Its relative viability is 0.648.

With EKVX as the cell line, how does the relative viability read?
Its relative viability is 0.393.

For LC-2-ad, which relative viability is on record?
The relative viability was 0.871.

Which relative viability does the source give for NCI-H1975 here?
The relative viability was 0.41.

With RERF-LC-KJ as the cell line, how does the relative viability read?
The relative viability was 0.862.

NCI-H650 was tested. Which relative viability did it give?
Its relative viability is 1.06.

With PC-3 [JPC-3] as the cell line, how does the relative viability read?
Its relative viability is 0.761.

same assay, conditions: first compound 2 µM

Which relative viability does the source give for HCC-78 here?
Its relative viability is 0.723.

Which relative viability does the source give for NCI-H322M here?
The relative viability was 0.531.

LCLC-97TM1 was tested. Which relative viability did it give?
The relative viability was 0.225.

Which relative viability does the source give for NCI-H2009 here?
The relative viability was 0.323.

Which relative viability does the source give for A-427 here?
The relative viability was 0.739.

With NCI-H441 as the cell line, how does the relative viability read?
Its relative viability is 0.422.

NCI-H661 was tested. Which relative viability did it give?
Its relative viability is 0.648.

For NCI-H1734, which relative viability is on record?
Its relative viability is 0.738.

For NCI-H460, which relative viability is on record?
The relative viability was 0.107.

Which relative viability does the source give for NCI-H2347 here?
The relative viability was 0.271.

How did the relative viability turn out when SK-LU-1 was run?
Its relative viability is 0.516.

With 201T as the cell line, how does the relative viability read?
Its relative viability is 0.71.

With NCI-H1915 as the cell line, how does the relative viability read?
Its relative viability is 0.309.

With HCC-827 as the cell line, how does the relative viability read?
The relative viability was 0.518.

How did the relative viability turn out when LXF-289 was run?
The relative viability was 0.634.

Which relative viability does the source give for NCI-H23 here?
The relative viability was 0.44.

How did the relative viability turn out when NCI-H647 was run?
Its relative viability is 0.527.

With NCI-H1651 as the cell line, how does the relative viability read?
Its relative viability is 0.888.

How did the relative viability turn out when EPLC-272H was run?
The relative viability was 0.268.

How did the relative viability turn out when NCI-H1792 was run?
The relative viability was 0.466.

Which relative viability does the source give for NCI-H1355 here?
The relative viability was 0.433.

NCI-H3122 was tested. Which relative viability did it give?
Its relative viability is 0.197.

For NCI-H1437, which relative viability is on record?
Its relative viability is 0.527.

How did the relative viability turn out when NCI-H1755 was run?
Its relative viability is 0.713.

Which relative viability does the source give for NCI-H2023 here?
Its relative viability is 0.501.

With HCC-15 as the cell line, how does the relative viability read?
The relative viability was 0.373.

How did the relative viability turn out when PC-14 was run?
The relative viability was 0.806.

Which relative viability does the source give for EKVX here?
Its relative viability is 0.319.

Which relative viability does the source give for LC-2-ad here?
Its relative viability is 0.942.

NCI-H1975 was tested. Which relative viability did it give?
The relative viability was 0.346.

How did the relative viability turn out when RERF-LC-KJ was run?
Its relative viability is 0.928.

For NCI-H650, which relative viability is on record?
The relative viability was 1.

With PC-3 [JPC-3] as the cell line, how does the relative viability read?
Its relative viability is 0.745.

same assay, conditions: first compound 6.325 µM

For HCC-78, which relative viability is on record?
The relative viability was 0.685.

NCI-H322M was tested. Which relative viability did it give?
Its relative viability is 0.512.

With LCLC-97TM1 as the cell line, how does the relative viability read?
Its relative viability is 0.195.

With NCI-H2009 as the cell line, how does the relative viability read?
Its relative viability is 0.289.

With A-427 as the cell line, how does the relative viability read?
Its relative viability is 0.674.

NCI-H441 was tested. Which relative viability did it give?
The relative viability was 0.33.

NCI-H661 was tested. Which relative viability did it give?
The relative viability was 0.586.

For NCI-H1734, which relative viability is on record?
Its relative viability is 0.552.

Which relative viability does the source give for NCI-H460 here?
The relative viability was 0.0898.

With NCI-H2347 as the cell line, how does the relative viability read?
Its relative viability is 0.377.

Which relative viability does the source give for SK-LU-1 here?
Its relative viability is 0.459.

With 201T as the cell line, how does the relative viability read?
The relative viability was 0.675.

Which relative viability does the source give for NCI-H1915 here?
Its relative viability is 0.277.

Which relative viability does the source give for HCC-827 here?
The relative viability was 0.542.

With LXF-289 as the cell line, how does the relative viability read?
Its relative viability is 0.625.

NCI-H23 was tested. Which relative viability did it give?
Its relative viability is 0.342.

For NCI-H647, which relative viability is on record?
Its relative viability is 0.238.

How did the relative viability turn out when NCI-H1651 was run?
The relative viability was 0.848.

With EPLC-272H as the cell line, how does the relative viability read?
The relative viability was 0.278.

NCI-H1792 was tested. Which relative viability did it give?
Its relative viability is 0.399.

How did the relative viability turn out when NCI-H1355 was run?
The relative viability was 0.385.

For NCI-H3122, which relative viability is on record?
Its relative viability is 0.208.

Which relative viability does the source give for NCI-H1437 here?
The relative viability was 0.325.

Which relative viability does the source give for NCI-H1755 here?
The relative viability was 0.746.

NCI-H2023 was tested. Which relative viability did it give?
The relative viability was 0.116.

With HCC-15 as the cell line, how does the relative viability read?
Its relative viability is 0.379.

With PC-14 as the cell line, how does the relative viability read?
The relative viability was 0.0693.

How did the relative viability turn out when EKVX was run?
Its relative viability is 0.278.

With LC-2-ad as the cell line, how does the relative viability read?
Its relative viability is 0.941.

For NCI-H1975, which relative viability is on record?
The relative viability was 0.322.

With RERF-LC-KJ as the cell line, how does the relative viability read?
Its relative viability is 0.803.

How did the relative viability turn out when NCI-H650 was run?
The relative viability was 0.978.

Which relative viability does the source give for PC-3 [JPC-3] here?
The relative viability was 0.507.

compound: COc1cc2nc(N3CCCN(C)CC3)nc(NC3CCN(Cc4ccccc4)CC3)c2cc1OC + CC(C)C[C@H](NC(=O)[C@H](Cc1ccccc1)NC(=O)c1cnccn1)B(O)O [Bortezomib] (partner 0.002 µM); test: as above; settings: first compound 0.2 µM
Method in brief: as §1

How did the relative viability turn out when HCC-78 was run?
Its relative viability is 0.511.

With NCI-H322M as the cell line, how does the relative viability read?
Its relative viability is 1.31.

Which relative viability does the source give for LCLC-97TM1 here?
Its relative viability is 0.439.

How did the relative viability turn out when NCI-H2009 was run?
Its relative viability is 0.94.

With A-427 as the cell line, how does the relative viability read?
The relative viability was 0.962.

Which relative viability does the source give for NCI-H441 here?
Its relative viability is 0.454.
